Results published in patent US5610174A, “Use of α1A -selective adrenoceptor agonists for the treatment of urinary incontinence” (priority 1995, dated 1997).
Read-outs that look alike come from different tables or passages of the source.

Assays:
[1] = molecular target: T1, human α2A adrenoceptor (Homo sapiens, UniProt P08913); test: Radioligand binding ([3H]rauwolscine) at cloned human α2A
T1 construct: expressed in transfected cells; host or cells: LM(tk-)
T1 sequence (P08913 1-465): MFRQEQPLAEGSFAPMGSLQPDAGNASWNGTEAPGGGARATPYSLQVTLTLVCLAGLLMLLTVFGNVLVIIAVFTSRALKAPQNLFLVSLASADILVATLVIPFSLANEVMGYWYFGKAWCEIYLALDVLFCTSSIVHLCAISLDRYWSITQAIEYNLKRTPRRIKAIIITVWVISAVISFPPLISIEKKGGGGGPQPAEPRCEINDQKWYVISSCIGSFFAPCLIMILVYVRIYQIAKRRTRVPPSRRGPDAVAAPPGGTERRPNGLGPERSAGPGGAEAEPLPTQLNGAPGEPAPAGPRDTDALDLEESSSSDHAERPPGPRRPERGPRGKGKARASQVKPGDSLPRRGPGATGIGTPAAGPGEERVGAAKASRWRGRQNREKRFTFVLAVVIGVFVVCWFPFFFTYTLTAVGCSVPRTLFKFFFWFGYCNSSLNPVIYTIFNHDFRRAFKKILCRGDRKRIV
Experimental: To determine the affinity of compounds at the α2 receptors, LM(tk-) cell lines stably transfected with the genes encoding the α2A, α2B, and α2C receptors were used. Cell lysates were prepared as described above (see Radioligand Binding Assays), and suspended in 25 mM glycylglycine buffer (pH 7.6 at room temperature). Equilibrium competition binding assays were performed using [^3 H] rauwolscine (0.5 nM), and nonspecific binding was determined by incubation with 10 μM phentolamine. The bound radioligand was separated by filtration through GF/B filters using a cell harvester.

[2] = molecular target: T2, human dopamine D5 receptor (Homo sapiens, UniProt P21918); test: Radioligand binding at human dopamine D5
T2 construct: expressed in transfected cells
T2 sequence (P21918 whole entry): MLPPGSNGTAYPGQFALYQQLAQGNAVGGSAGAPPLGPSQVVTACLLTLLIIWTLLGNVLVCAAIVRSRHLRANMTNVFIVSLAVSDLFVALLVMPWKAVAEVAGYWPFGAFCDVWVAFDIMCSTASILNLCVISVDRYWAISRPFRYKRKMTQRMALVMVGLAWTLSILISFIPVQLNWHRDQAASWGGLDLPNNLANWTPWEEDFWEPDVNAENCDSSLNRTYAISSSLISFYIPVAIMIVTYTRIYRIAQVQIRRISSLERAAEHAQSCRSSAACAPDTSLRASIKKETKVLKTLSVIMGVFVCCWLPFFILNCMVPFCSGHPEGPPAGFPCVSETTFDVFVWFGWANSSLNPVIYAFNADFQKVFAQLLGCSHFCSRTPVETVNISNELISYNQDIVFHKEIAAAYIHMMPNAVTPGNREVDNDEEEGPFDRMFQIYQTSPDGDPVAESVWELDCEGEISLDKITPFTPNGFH
Experimental: Other Dopamine receptors were prepared by known methods. (D1 : Dearry et al., Nature, 347, 72, (1990), deposited with the European Molecular Biological Laboratory (EMBL) Genbank as X55760; D3 : Sokoloff, P. et al., Nature, 347, 146 (1990), deposited with the European Molecular Biological Laboratory (EMBL) Genbank as X53944; D5 : Sunahara, R. K., et al., Nature, 350, 614 (1991), deposited with EMBL Genbank as X58454-HU HD 5DR).

[3] = molecular target: T3, human histamine H1 receptor (Homo sapiens, UniProt P35367); test: Radioligand binding at cloned human histamine H1; settings: [3H]mepyramine; for Ki: read-out: pKi H1 (converted)
T3 construct: expressed in transfected cells; host or cells: COS-7 (plasmid pcEXV-H1, ATCC 75346)
T3 sequence (P35367 whole entry): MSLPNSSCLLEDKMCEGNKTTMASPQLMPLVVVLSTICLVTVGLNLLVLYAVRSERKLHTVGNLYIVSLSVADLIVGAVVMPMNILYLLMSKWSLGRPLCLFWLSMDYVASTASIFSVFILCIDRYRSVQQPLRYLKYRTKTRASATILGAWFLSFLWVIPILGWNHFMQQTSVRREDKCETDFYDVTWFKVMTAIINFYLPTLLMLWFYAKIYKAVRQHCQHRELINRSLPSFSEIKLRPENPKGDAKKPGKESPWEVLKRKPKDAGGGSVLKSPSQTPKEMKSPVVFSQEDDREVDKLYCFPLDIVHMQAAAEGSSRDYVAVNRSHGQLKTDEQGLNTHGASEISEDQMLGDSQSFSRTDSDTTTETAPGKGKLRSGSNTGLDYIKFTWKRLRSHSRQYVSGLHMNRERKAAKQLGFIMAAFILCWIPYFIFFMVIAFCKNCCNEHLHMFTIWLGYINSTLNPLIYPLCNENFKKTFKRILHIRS
Experimental: Human Histamine H1 Receptor
The coding sequence of the human histamine H1 receptor, homologous to the bovine H1 receptor, was obtained from a human hippocampal cDNA library, and was cloned into the eukaryotic expression vector pCEXV-3. The plasmid DNA for the H1 receptor is designated pcEXV-H1, and was deposited on Nov. 6, 1992 under ATCC Accession No. 75346. This construct was transfected into COS-7 cells by the DEAE-dextran method. Cells were harvested after 72 hours and lysed by sonication in 5 mM Tris-HCl, 5 mM EDTA, pH 7.5. The cell lysates were centrifuged at 1000 rpm for 5 min at 4° C., and the supernatant was centrifuged at 30,000×g for 20 min. at 4° C. The pellet was suspended in 37.8 mM NaHPO4, 12.2 mM KH2 PO4, pH 7.5. […]. The bound radioligand was separated by filtration through GF/B filters using a cell harvester.

[4] = molecular target: T4, human 5-HT1F receptor (Homo sapiens, UniProt P30939); test: Radioligand binding at human 5-HT1F
T4 construct: expressed in transfected cells; host or cells: LM(tk-) clonal cell line, designated L-5-HT1F, ATCC CRL 10957 (cell lysates)
T4 sequence (P30939 1-366): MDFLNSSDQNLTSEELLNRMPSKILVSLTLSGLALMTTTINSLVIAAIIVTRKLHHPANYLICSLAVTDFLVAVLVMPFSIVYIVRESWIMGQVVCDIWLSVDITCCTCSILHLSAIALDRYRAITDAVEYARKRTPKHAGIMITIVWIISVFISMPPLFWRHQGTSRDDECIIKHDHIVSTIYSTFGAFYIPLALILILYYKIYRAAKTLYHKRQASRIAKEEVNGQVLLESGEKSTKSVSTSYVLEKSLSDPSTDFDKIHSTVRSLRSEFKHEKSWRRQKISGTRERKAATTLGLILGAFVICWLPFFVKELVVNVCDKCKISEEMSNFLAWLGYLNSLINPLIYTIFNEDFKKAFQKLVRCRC
Experimental: Human Serotonin Receptors
5-HT1Dα, 5-HT1Dβ, 5-HT1E, 5-HT1F, and 5-HT7 Receptors: The cell lysates of LM(tk-) clonal cell line stably transfected with the genes encoding each of these 5-HT receptor-subtypes were prepared as described above. The cell line for the 5-HT1Dαreceptor, designated as Ltk-8-30-84, was deposited on Apr. […] The cell for the 5-HT1Dβ receptor, designated as Ltk-11, was deposited on Apr. […] The cell line for the 5-HT1E receptor, designated 5-HT1E -7, was deposited on Nov. […] The cell line for the 5-HT1F receptor, designated L-5-HT1F, was deposited on Dec. […] The cell line for the 5-HT7 receptor, designated as L-5-HT-4B, was deposited on Oct. […] These preparations were suspended in 50 mM Tris-HCl buffer (pH 7.4 at 37° C.) containing 10 mM MgCl2, 0.2 mM EDTA, 10 μM pargyline, and 0.1% ascorbate. […] Nonspecific binding was determined in the presence of 10 μM serotonin. The bound radioligand was separated by filtration through GF/B filters using a cell harvester.

[5] = Table 3, agonists, read-out: pKi α2A (converted)

With `CNCCc1ccc(O)c(NS(C)(=O)=O)c1` [SK&F 102652] the “pKi α2A” value ([1]; Table 3, agonists) was 6.4, the “pKi D5” value [2] was 4.8 and the “pKi H1” value [3] was 4.3. For the same molecule, the “pKi 5-HT1F” value ([4]; [3H]serotonin) was 5.3.
`CS(=O)(=O)Nc1c(O)ccc2c1CCCC2C1=NCCN1` (racemic) [Compound A-61603, (±)-N-[5-(4,5-Dihydro-1H-imidazol-2-yl)-2-hydroxy-5,6,7,8-tetra-hydronaphthalen-1-yl]methanesulfonamide] was tested, and the Ki [2] was 15.8 µM, the Ki [3] was 50.1 µM and the Ki ([4]; [3H]serotonin, read-out: pKi 5-HT1F (converted)) was 5.01 µM.
With `COc1ccc(OC)c(C(O)CN)c1` (racemic) [ST-1059, (±)-2-Amino-1-(2, 5 dimethoxyphenyl) ethanol] the Ki [1, 5] was 2 µM.
`C[C@H](N)[C@H](O)c1ccccc1` [(-)-norephedrine] was tested, and the Ki [1, 5] was 0.501 µM.
In the case of `CN[C@@H](C)[C@H](O)c1ccccc1` [(-)-ephedrine], the Ki [1, 5] is reported as 0.794 µM.
For `COc1ccc(SC)c2c1C[C@@H]1[C@@H](C2)OCCN1C` (relative stereo) [SDZ NVI-085, (±)-trans-4-Methyl-6-methoxy-9-thiomethoxy-3,4,4a, 5,10,10a-hexahydro-2H-naphtho[2,3-b][1,4]oxazine], the Ki [1] was 0.0501 µM, the Ki ([2]; read-out: pKi D5 (converted)) was 20 µM and the Ki [3] was 5.01 µM. It also gave a Ki [4] of 0.1 µM.
